Experimental data published in patent US6342519B2, “Oxetanone derivatives” (2 Pro Chemical, priority 1999, dated 2002).

Columns and labels:
[1] = target: T1, human lipase (Homo sapiens, UniProt P16233); assay: Lipase inhibition assay, Lipase #1 solution (Aldrich Lipase PS Standard); assay type: biochemical; conditions: Lipase #1 (human lipase), 20 mL of compound stock solution in 0.2 N HCl, Sigma Lipase Substrate, pH about 8, 30 minutes, 35-37° C., titration with 0.025 N NaOH, two runs
T1 construct: purchased Aldrich Product No. 8054
T1 sequence (P16233 17-465): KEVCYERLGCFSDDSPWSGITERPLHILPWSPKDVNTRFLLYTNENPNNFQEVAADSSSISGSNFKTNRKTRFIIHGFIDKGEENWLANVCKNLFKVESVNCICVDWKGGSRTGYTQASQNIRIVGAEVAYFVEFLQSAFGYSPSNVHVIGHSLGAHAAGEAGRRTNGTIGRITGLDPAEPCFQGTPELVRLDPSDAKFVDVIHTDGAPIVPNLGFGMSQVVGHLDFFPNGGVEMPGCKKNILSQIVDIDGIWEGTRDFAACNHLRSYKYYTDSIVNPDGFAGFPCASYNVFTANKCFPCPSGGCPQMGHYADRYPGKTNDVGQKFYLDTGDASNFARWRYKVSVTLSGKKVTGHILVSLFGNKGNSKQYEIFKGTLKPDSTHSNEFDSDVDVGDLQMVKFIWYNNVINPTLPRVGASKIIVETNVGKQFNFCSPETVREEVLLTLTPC
Description: (§1) Lipase inhibition assays were performed essentially as follows using each of Compounds A and B.
(§2) A 1 L stock solution of 1N NaOH was made and a 500 mL stock solution of 0.025 N NaOH was made by diluting a portion of the stock 1N solution. Also a stock solution of 0.2 N HCl was made. A 100 mL TRIZMA solution (from Aldrich Lipase Assay Kit Cat. No. 800B) was diluted with 100 mL of denatured EtOH and 300 mL of water to form a 500 mL TEW solution. Compound A from Example 6 (100 mg) was added to a portion of the 0.2 N HCl stock solution and diluted to a final volume of 300 mL with the same HCl stock solution to form a compound A stock solution. […]
(§3) In a 500 mL beaker equipped with a heat source and a magnetic stirrer was added 100 mL of distilled water, 10 mL of TEW solution, 10 mL of Sigma Lipase Substrate and a 20 mL sample (sample control was 20 mL of the stock 0.2 N HCl solution, sample A was 20 mL of the compound A stock solution, and sample B was 20 mL of the compound B stock solution). The pH was adjusted to about 8 with 1N NaOH using a pH meter, whose reading was noted and recorded as a baseline reading after the pH adjustment. […] The volume of NaOH solution used to return to the baseline pH reading was noted and recorded. […]

[2] = Oil binding assay with olive oil and food-coloured water; assay type: physicochemical; conditions: for oil binding, observation: olive oil/substance 1.5/1 ratio by weight, then 4 mL of water with food coloring
Description: Oil binding assay were performed using each of Compounds A and B using the procedures essentially as follows.
Six controls were obtained by adding Star Brand Olive Oil (extra virgin light colored olive oil) to 4 or 7 mL sample bottles, which were photographed at a distance of 10 inches by using an IZONE POLAROID camera as follows.
For comparison with Control 4 (oil/chitosan 1.5/1 ratio) each of Compounds A and B were mixed with oil in the same ratio(oil/compound 1.5/1 ratio, green food coloring was added to the aqueous portion of the compound A sample bottle and blue food coloring was added to the aqueous portion of the compound B sample bottle).
For comparison with Control 6 (oil/chitosan 8:1 ratio and 1 mL of aqueous solution with food coloring), compound B was added to 8 times its weight of oil and stirred to a uniform consistency. The 1 mL of water was added and 5 drops of red food coloring were added.

[3] = target: T2, Pork Pancreas Lipase [EC 3.1.1.3] (Sus scrofa, UniProt P00591); assay: Lipase inhibition assay, Lipase #2 solution (Aldrich Pork Pancreas Lipase); assay type: biochemical; conditions: Lipase #2 (pork pancreas lipase), 20 mL of compound stock solution in 0.2 N HCl, Sigma Lipase Substrate, pH about 8, 30 minutes, 35-37° C., titration with 0.025 N NaOH, two runs
T2 construct: purchased Aldrich Product No. 32313; host or cells: pork pancreas
T2 sequence (P00591 1-450): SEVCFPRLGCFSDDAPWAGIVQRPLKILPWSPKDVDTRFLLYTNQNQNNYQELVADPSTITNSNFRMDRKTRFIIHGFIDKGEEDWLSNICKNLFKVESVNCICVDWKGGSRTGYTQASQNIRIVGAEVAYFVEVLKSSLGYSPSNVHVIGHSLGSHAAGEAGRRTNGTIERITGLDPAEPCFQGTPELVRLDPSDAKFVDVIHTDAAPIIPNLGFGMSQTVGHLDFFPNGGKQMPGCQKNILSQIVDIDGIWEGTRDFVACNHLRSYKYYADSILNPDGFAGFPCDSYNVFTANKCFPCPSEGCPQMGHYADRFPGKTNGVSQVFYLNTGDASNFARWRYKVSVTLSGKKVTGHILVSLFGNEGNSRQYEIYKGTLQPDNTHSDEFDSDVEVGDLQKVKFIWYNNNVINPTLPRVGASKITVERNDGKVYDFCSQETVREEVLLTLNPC
Description: as §1, §2, §3

[4] = system: absorption of dietary fat; conditions: 120 mg dose taken before, or up to one hour after, a fat-containing meal; average person; cited from earlier work

Molecule | percent inhibition with respect to the control [1] | oil binding, observation [2] | percent inhibition with respect to the control [3] | water absorbed after binding oil ([2]; olive oil/compound 8:1, 1 mL of water) | tightness of oil binding compared with chitosan and compound A ([2]; olive oil/substance 1.5/1 ratio) | oil binding and water uptake, observation ([2]; olive oil/substance 8:1 ratio by weight, then 1 mL of water and 5 drops of red food coloring) | share of the fat eaten at a given meal that is not absorbed [4]
2S, 3S, 4S [2-{(hexanoic acid modified chitosan 6-hexanoylamido}-4-methylvaleryloxy]-2-hexyl-hexadecanoic 1,3-lactone [Compound A] | about 50% | oil is bound tightly at the bottom of the bottle and there is substantially no floating oil | about 50% | – | – | – | –
4-[{(hexanoic acid modified chitosan 6-hexanoyloxy}-2-hexyl-hexadecanoic 1,3-lactone [Compound B] | about 50% | oil is bound tightly at the bottom of the bottle and there is substantially no floating oil | about 50% | at least its weight in water | appeared to perhaps bind the oil more tightly than either chitosan or compound A | uniformly absorbed the 1 mL of aqueous food coloring solution to form a homogenous layer which was present even after 24 hours | –
CCCCCCCCCCC[C@@H](C[C@@H]1OC(=O)[C@H]1CCCCCC)OC(=O)[C@H](CC(C)C)NC=O [Orlistat, (2S,3S,5S)-5-[(S)-2-formamido-4-methyl-valeryloxy]-2-hexyl-3-hydroxy-hexadecanoic 1,3 acid lactone] | – | – | – | – | – | – | up to one-third
